# How the values were obtained:
# [1] = In vitro ADMET table: potency; type: cell-based
# Text: (§1) FIG. 16 Table showing the in vitro absorption, distribution, metabolism, elimination and toxicity (ADMET) properties of F3.14.
# [2] = In vitro ADMET: permeability (efflux ratio); type: in vitro ADME
# Text: as §1
# [3] = In vitro ADMET: semi-thermodynamic solubility; type: physicochemical; details: aqueous solutions
# Text: as §1
# In vivo pharmacokinetics = details: mice, intravenous
# Procedure: 3 Healthy non-SCID mice were intravenously treated with F3.14—Blood samples were collected at 2, 4, 6, 8 and 24 hours after treatment. Serum from the collected blood samples were isolated and the concentration of F3.14 in the serum was measure to determine the intrinsic clearance of F3.14.
# FRS2 = molecular target: T1, FRS2 (Homo sapiens, UniProt Q8WU20); assay: Biophysical binding assays (nanoDSF, MST, NMR); details: MST and NMR analysis
# T1 construct: 6xHis
# T1 sequence (Q8WU20 1-508): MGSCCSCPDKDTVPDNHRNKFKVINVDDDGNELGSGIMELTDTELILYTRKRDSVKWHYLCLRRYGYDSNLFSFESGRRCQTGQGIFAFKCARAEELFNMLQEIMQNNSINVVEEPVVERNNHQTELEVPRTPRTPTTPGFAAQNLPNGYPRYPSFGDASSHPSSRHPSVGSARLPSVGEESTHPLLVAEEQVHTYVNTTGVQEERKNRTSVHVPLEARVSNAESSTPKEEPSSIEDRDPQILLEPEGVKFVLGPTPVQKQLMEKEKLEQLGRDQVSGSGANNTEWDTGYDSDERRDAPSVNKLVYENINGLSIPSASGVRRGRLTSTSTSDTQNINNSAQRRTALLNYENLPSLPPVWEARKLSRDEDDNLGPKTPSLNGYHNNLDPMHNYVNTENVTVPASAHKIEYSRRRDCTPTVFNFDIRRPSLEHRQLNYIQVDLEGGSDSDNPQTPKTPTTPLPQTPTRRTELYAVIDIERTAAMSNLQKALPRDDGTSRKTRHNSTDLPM
# Procedure: Nano Differential Scanning Fluorimetry (nanoDSF)
# Purified FRS2 protein tagged with 6× Histidine residues and Guanine nucleotide-binding protein subunit beta (GB1) was diluted in the protein buffer (100 mM sodium phosphate, 50 mM NaCl, 0.5 mM EDTA, 50 mM arginine, 1 mM TCEP, pH 7.0) to final concentration of 30 μM. The compounds were dissolved in 100% at 50 or 100 mM and further diluted to 1 mM with a final concentration of 100% DMSO. Compound and protein were mixed at 1:1 ration yielding final concentrations of 15 μM and 500 μM for the compounds. The mixture was incubated at room temperature for 15 minutes before measurement. The measurement was performed on a Prometheus system in high sensitivity capillaries. Samples were subjected to a temperature gradient of 20 to 95° C. with 1° C./min intervals.
# Microscale Thermophoresis (MST)
# Purified FRS2 protein tagged with 6× Histidine residues and Guanine nucleotide-binding protein subunit beta (GB1) was labelled with 2nd generation BLUE-NHS dye. The protein was labelled at a final concentration of 20 µM with 60 μM dye. The labelling was performed in the protein buffer without arginine supplementation. Arginine was re-buffered to protein's buffer post-labelling. The compounds were dissolved in 100% at 50 or 100 mM and further diluted to 1 mM with a final concentration of 100% DMSO. […] The interaction was measured in two independent duplicates.
# [4] = In vitro ADMET: toxicity (MTT); type: cell-based
# Text: as §1
# FGF signaling pathway = assay: Immunoblotting / pathway analysis; type: cell-based
# Procedure: (§2) Cancer cells were treated with bFGF (100 ng/ml) and/or with compounds and lysed using Radioimmunoprecipitation assay (RIPA) buffer. RIPA buffer lysates were resolved by SDS-PAGE and transferred to a nitrocellulose membrane using a transfer apparatus according to the manufacturer's instructions (Bio-Rad). Membranes were probed with primary antibodies against phospho-FRS2, FRS2, ERK1/2, phospho-ERK1/2, AKT, phosphor-AKT, phospho-PKC and tubulin. HRP-linked secondary antibodies (1:5000) were used to detect the primary antibodies. Chemiluminescence detection was performed using ChemiDoc Touch Gel and Western Blot imaging system (BioRad).
# as §2, with “RIPA” for “Cancer cells were treated with bFGF (100 ng/ml) and/or with compounds and lysed using Radioimmunoprecipitation assay (RIPA) buffer. RIPA”, “buffer FGFR-driven cell” for “buffer”, “phospho-AKT,” for “phosphor-AKT,”, “(BioRad). Integrated density of Immuno-reactive bands was quantified using Adobe Photoshop CS5.” for “(BioRad).”
# [5] = test system: FGFR-driven cancer cell lines; assay: Spheroid invasion assay; type: cell-based; details: all the FGFR-driven cancer cell lines tested
# Procedure: Spheroid Invasion Assay (S/A) and Automated Cell Dissemination Counter (aCDc)
# 1000 cells/100 μl per well were seeded in cell-repellent 96 well microplate (650790, Greiner Bio-one). The cells were incubated at 37° C. overnight to form spheroids. 70 μl of the medium were removed from each well, and remaining medium with spheroid overlaid with 2.5% bovine collagen 1. Following the polymerization of collagen, fresh medium was added to the cells and treated with growth factors and/or with inhibitors. The cells were allowed to invade the collagen matrix for 24 h, after which they were fixed with 4% PFA and stained with Hoechst. Images were acquired on an Axio Observer 2 mot plus fluorescence microscope (Zeiss, Munic, Germany) using a 5×objective. Cell invasion is determined as the average of the distance invaded by the cells from the centre of the spheroid as determined using automated cell dissemination counter (aCDc) with our cell dissemination counter software aSDlcs (Kumar et al., Sci Rep 5, 15338 (2015)).
# [6] = test system: FGFR-driven cancer cell lines; assay: Cell titer glo assay; type: cell-based; details: all the FGFR-driven cancer cell lines tested
# Procedure: The metabolic activity and the proliferation of the cells were determined using the Cell Titer glo assay from Promega according to the manufacturer's instructions. In brief, 250 cells/100 μl/per well (for up to 72 h incubation) were seeded in Greiner Bio-One p-clear 384 well plates (655090, Greiner Bio-One) and incubated overnight at 37° C. The old media was then replaced with fresh serum-free media and the cells were treated with BGJ398 or F3.14 till the desired time point. Following appropriate incubation for each timepoint, 10 μl of the Cell titer glo reagent was added to each well (final concentration of cell titer glo reagent per well is 1:10) and incubated at 37° C. for 30 minutes. The luminescence was then measured with a signal integration time of 0.5 to 1 second per well.
# [7] = In vitro ADMET: metabolic stability (intrinsic clearance, t½); type: in vitro ADME
# Text: as §1
compound,measurement,setting,value
CC(C)C[C@@H](CO)NCc1cc(O)c2cc(F)ccc2n1 [Compound F3.14],potency,[1],high
same,permeability,[2],good
same,solubility,[3],very good
same,tolerability,In vivo pharmacokinetics,well-tolerated
same,binding to FRS2,FRS2,confirmed the binding of F3.14 to FRS2
same,toxicities,[4],very low
same,effect on FGF signal transduction (phosphorylation of downstream effectors),FGF signaling pathway,inhibits the FGF signal transduction by inhibiting the phosphorylation of the downstream effectors
same,inhibition of cancer cell invasion,[5],effectively inhibits
same,inhibition of cancer cell proliferation,[6],effectively inhibits
same,intrinsic clearance,[7],moderate
